In patent publication US7935726B1, “Tricyclic pyrones” (Kansas State University Research Foundation, priority 1999, dated 2011):
Where two headings read alike, the source gives them in different places.

Key:
L1210 tumor cells = assay: cytotoxicity to L1210 tumor cells; format: cell-based
Description: (§1) The reported procedures for the inhibitory activities of ACAT (Tomoda, H.; Nishida, H.; Masuma, R.; Cao, J.; Okuda, S.; Omura, S. J. Antibiot. 1991, 44, 136-143), CETP (Tomoda, H.; Tabata, N.; Masuma, R.; Si, S.-Y.; Omura, S. J. Antibiot. 1998, 51, 618-623; D. H. Hua et al. Tetrahedron 2003, 59, 4795-4803), L1210 tumor cells (Perchellet, E. M.; Ladesich, J. B.; Magill, M. J.; Chen, Y.; Hua, D. H.; Perchellet, J. P. Anti-Cancer Drugs 1999, 10, 489-504), and APP C99-induced cell death (Jin, L.-W.; Hua, D. H.; Shie, F.-S.; Maezawa, I.; Sopher, B.; Martin, G. M. J. Mol. Neurosci. 2002, 19, 57-61) were followed.

MC65 cells = assay: protection from APP C99-induced cell death in MC65 cells; format: cell-based; settings: for EC50: MC65 cells in the absence of tetracycline
Description: as §1, with “followed. […]” for “followed.”

PKC-γ [1] = assay: canine study: PKC-γ level of dog lens (Western blot); format: in vivo, Beagle dogs
Protocol: (§2) A pilot study was conducted to determine initial toxicity and efficacy in a Beagle model. The study was conducted at the fully accredited facility at the Kansas State University Veterinary Clinic. The dogs were fed a 40% galactose diet for 6 weeks. These dogs developed cataracts. Compound 1 was administered orally at 100 mg/kg body weight/day for 6 weeks. At this dose, the polyol levels were 50% normalized (FIG. 4) and PKCγ levels were 80% normalized (FIG. 5). […] The PkC-γ levels of dogs treated with galactose is 30.8%, G+I is 84.1% and C+I is 79.7%. Additional testing at higher doses is planned to determine optimal dose for efficacy with no or low toxicity. These experiments are well within the skill and experience of one of ordinary skill in the art and can be performed without undue experimentation.

[2] = system: bovine lens epithelial cells; assay: toxicity in bovine lens epithelial cells; format: cell-based; settings: up to 100 uM added to bovine lens epithelial cells
PKC-γ [3] = assay: galactose-fed rats: PKC-γ levels in lens and sciatic nerve (Western blot); format: in vivo, Sprague Dawley Rats; settings: high galactose feed, 100 mg/Kg body weight per day, FIG. 3B
Protocol: In order to test for in vivo effects of ARI's, rats were fed a 40% galactose diet for 9 days and the accumulation of galactitol was measured in lens tissue. This tissue has high aldose reductase activity and the eye has a separate vasculature. Thus, if the ARI works in the lens this is a good indication that the drug works and can penetrate to most tissues.
The specific experimental details follow. […] The rats were given food supplemented with inhibitor in the morning and then given food and water ad libitum the rest of the day. They were kept on a 12-hour on and 12-hour off light cycle. After 9 days, the rats were sacrificed with an overdose of CO2 and then eyes were taken and immediately frozen on dry ice for later polyol and PKC analyses. Experiments on all rats conformed to the ARVO resolution on the Use of Animals in Research.
The lenses were removed from the enucleated eyes and weighed. They were put in 200 μL lysis buffer (50 mM Tris, 100 mM NaCl, M-Per Pierre Zwitterionic detergent, 5 mM NaF, 1 mM Na3VO4, 40 mM β-glycerophosphate, 6 μg/mL chymotrypsin, 10 μM3,4-dichlorocoumarin, 10 μM E-64, 1 μg/mL leupeptin, 1 μg/mL pepstatin A, 1 μg/mL aprotinin, 1 mM PMSF, and 5 mM EDTA (Sigma). The lenses were then ground using a tissue grinder until they were a uniformly white solution. They were then sonicated to make certain all the cells were disrupted. The mixture was then centrifuged for 20 minutes at 0° C. at […]. The supernatant was then analyzed for protein content using […] (Pierce). Equal amounts of protein were loaded and separated on a 10% SDS polyacrylamide gel. The proteins were transferred to nitrocellulose (Midwest Scientific; pore size 0.45 μm). The western was blocked with a 3% milk solution, and then mouse anti-PKC γ (1:5000) or PKC α (1:1000) antisera (Transgenic Laboratories) were applied in a 3% milk solution overnight. […]
The effects of streptozotocin induced diabetes on PKC-γ levels in rat lens have been measured. […]

[4] = molecular target: T1, Human aldose reductase (AR) (Homo sapiens, UniProt P15121); assay: human AR inhibition assay (enzyme assay, NADPH absorption at 340 nm); format: biochemical; settings: Table 3; average of three assays; read-out: IC50, Inhibition of Human Retina Aldose Reductase
T1 construct: made in house; host or cells: E. coli
Protocol: Human aldose reductase (AR) was obtained from overexpression of the human AR gene in an E coli system and was purified by column chromatography using a talon metal affinity column and eluted with a gradient mixture of Tris, NaCl buffer and imidazole solution. The human AR inhibition assay was conducted as follows. In a sample cuvette, 25 mM of D-xylose (75 mg/mL) and 0.15 mM of reduced nicotinamide adenine dinucleotide phosphate (NADPH) (4 mg/mL), and various amount of the inhibitor [in PBS (phosphate buffer saline) solution; the concentration of the inhibitor was determined using UV spectroscopy based on εmax at λmax of the drug] in 700 uL of PBS (a solution made of 1.44 g of Na2HPO4, 0.24 g KH2PO4, 0.2 g KCl, and 8 g NaCl in 1 L of distilled water) buffer (pH=6.1) solution and 200 uL of the AR enzyme (a final volume of 1 mL was obtained). The intensity of absorption of NADPH (λmax=340 nm) was measured. When xylose is reduced to xylitol, NADPH is converted into NADP and the absorption at 340 nm decreases. When AR is inhibited by the drug, the absorption at 340 nm of NADPH remains unchanged. Each assay was repeated three times and an average IC50 value was obtained.

[5] = pathology studies in treated rats; format: in vivo; settings: 100 mg/Kg body weight per day, 9 days
[6] = canine study: polyol level in dog lens (GC/MS); format: in vivo, Beagle dogs
Protocol: as §2

[7] = system: N/N 1003 lens epithelial cells; assay: tissue culture assay: galactitol formation from galactose in lens epithelial cells (GC/MS); format: cell-based; settings: for inhibition at 10 µM: 10 uM inhibitor, 40 mM galactose media, lens epithelial cells, number of trials in parenthesis
Protocol: The activity of the drugs is tested in various ways, including tissue culture assays and assays testing aldose reductase inhibition. For the tissue culture assay, a lens epithelial cell line is grown in galactose with or without the drug. Cells are tested for polyol accumulation by GC/mass spectrometry. Levels of PKC are tested in homogenized cell pellets or in samples of lens, retina or sciatic nerves from treated patients. Tissue is homogenized and tested for PKCγ levels using Western blots. These procedures are described in more detail below.
The ability of the drugs to inhibit galactitol formation from galactose was also studied in N/N 1003 lens epithelial cells. Two sets of lens cells were grown in media with […] 40 mM galactose. Various concentrations of inhibitors were added initially and the cells were grown for 48 hours. The cells were lysed and galactose and galactitol were extracted out and the concentrations were determined using gas chromatography and mass spectrometry by silylating the crude extract with excess of trimethylsilyl chloride, trimethylsilyl imidazole and pyridine at 70° C. for 1 h.
40 mM galactose media was supplemented with 10 uM inhibitor and fed to lens epithelial cells for 48 hours.

caspase 103 = assay: in vitro caspase substrate study (release of p-nitroaniline); format: biochemical
Description: (§3) ACAT mediates the esterification of intracellular cholesterol and is believed to play a key role in lipoprotein metabolism and atherogenesis (for a review: Suckling, K. E.; Stange, E. F. J. Lipid Res. 1985, 26, 647-671). […] The inhibition of CETP with these three compounds was then studied. CETP, a hydrophobic neutral glycoprotein, mediates the transfer of cholesteryl ester from high-density lipoprotein to low-density lipoprotein (For a review: Tall, A. R. J. Lipid Res. 1993, 34, 1255-1274). […] The N-(p-nitrophenyl)aspartamide portion of 104 was attached in order to study whether 104 was a substrate of […] (For a review: VIIIa, P.; Kaufmann, S. H.; Earnshaw, W. C. Trends Biochem. Sci. 1997, 22, 388-393). […] Compound 105 is cytotoxic to L1210 tumor cells, with IC50=30 μM. Aggarwal et al., J. Chem. Soc., Perkin Trans I (1999) 3315-3321 is incorporated by reference to the extent not inconsistent with the disclosure herewith.

CETP = molecular target: T2, CETP (Homo sapiens, UniProt P11597); assay: inhibition of CETP; format: biochemical
T2 sequence (P11597 18-493): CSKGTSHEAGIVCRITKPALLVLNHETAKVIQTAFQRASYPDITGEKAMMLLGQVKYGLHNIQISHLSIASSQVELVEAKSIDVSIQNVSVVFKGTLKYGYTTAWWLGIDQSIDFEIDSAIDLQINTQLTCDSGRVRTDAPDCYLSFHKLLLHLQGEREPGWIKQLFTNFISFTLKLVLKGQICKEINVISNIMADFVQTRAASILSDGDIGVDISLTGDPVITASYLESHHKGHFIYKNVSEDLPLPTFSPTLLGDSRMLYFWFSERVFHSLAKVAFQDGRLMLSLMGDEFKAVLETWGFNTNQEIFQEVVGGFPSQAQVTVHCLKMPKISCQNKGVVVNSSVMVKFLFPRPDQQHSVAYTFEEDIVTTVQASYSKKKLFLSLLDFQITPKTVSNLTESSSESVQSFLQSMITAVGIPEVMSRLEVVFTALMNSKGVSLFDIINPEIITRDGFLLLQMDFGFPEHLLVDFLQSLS
Description: as §1, §3

ACAT = assay: inhibition of ACAT; format: biochemical
[8] = dogs, 40% galactose diet 6 weeks, orally 100 mg/kg body weight/day for 6 weeks
[9] = Galactosemic dogs, with inhibitor

For `Cc1cc2c(c(=O)o1)C=C1CC[C@@H](CC(C)n3cnc4c(N)ncnc43)C[C@@H]1O2` (mixture of isomers) [Compound 105, (5aS,7S)-7-[(1R) and (1S)-2-(N-9-Adenyl)-1-methylethyl]-3-methyl-1H,7H-5a,6,8,9-tetrahydro-1-oxopyrano[4,3-b][1]benzopyran], the IC50 (L1210 tumor cells; read-out: IC50, cytotoxic to L1210 tumor cells) was 30 µM, the “fold less active than 106 (EC50)” value (MC65 cells; MC65 cells) was 20 fold and the EC50 (MC65 cells) was 3 µM.

In the case of `O=C(O)Cc1cc2c(c(=O)o1)C=C1CCCCC1O2` (centres unmarked) [Compound 1, {1H,7H-5a,6,8,9-Tetrahydro-1-oxopyrano[4,3-b][1]benzopyran-3-yl}acetic acid], the “PKC-γ level of dog lens (read-out of intensities, FIG. 5)” value (PKC-γ [1]; control with inhibitor 1 (C+I)) is reported as 79.7%, the PKCγ levels normalized (PKC-γ [1]; [8]) is reported as 80% and the “PKC-γ level of dog lens (read-out of intensities, FIG. 5)” value (PKC-γ [1]; galactose and inhibitor 1 (G+I)) is reported as 84.1%. The toxicity [2] was “no toxicity was found”, the “PKC-γ levels in sciatic nerve cells” value (PKC-γ [3]) was “normalized” and the water solubility (water solubility) was “water soluble”. For the same compound, the IC50 [4] was 0.002 µM, the “toxicity to the rats (pathology studies)” value [5] was “not toxic to the rats” and the “Galactitol (polyol) (GC/MS, dog lens)” value [6, 9] was 27.3%. For the same compound, the “Galactose (GC/MS, dog lens)” value [6, 9] was 72.7%, the polyol levels normalized [6, 8] was 50% and the “% galactitol” value ([7]; 1 uM compound 1, 40 mM galactose, 48 hours) was 80%. The “% galactitol” value ([7]; 10 uM compound 1, 40 mM galactose, 48 hours) was 30%, the “concentration of galactitol relative to galactose (GC/MS, FIG. 1B)” value ([7]; 10 uM, 40 mM galactose, 48 hours) was “decreases the concentration of galactitol relative to galactose” and the IC50 ([7]; Epithelial cell) was 6 µM. For the same compound, the inhibition at 10 µM ([7]; Epithelial cell, 48 hours) was 80 ± 10%.

With `O=C(O)C(O)Cc1cc2c(c(=O)o1)C(O)C1CCCCC1O2` (centres unmarked) [Compound 2, 2-Hydroxy-3-{1H,7H-5a,6,8,9,10,11-hexahydro-10-hydroxy-1-oxopyrano[4,3-b][1]benzopyran-3-yl}-propanoic acid] the toxicity [2] was “no toxicity was found”, the water solubility (water solubility) was “water soluble” and the IC50 [4] was 0.02 µM. The inhibition at 10 µM ([7]; Epithelial cell, 48 hours) was under 10%.

For `C=C(C)[C@H]1CCC2=Cc3c(cc(CC(=O)N[C@@H](CC(=O)O)C(=O)Nc4ccc([N+](=O)[O-])cc4)oc3=O)O[C@H]2C1` [Compound 104], the “substrate of caspase 103 (release of p-nitroaniline)” value (caspase 103) was “not a substrate”, the IC50 (CETP) was over 180 µM and the “protection of MC65 cells from death (in words)” value (MC65 cells; MC65 cells conditionally expressing partial APP fusion protein, absence of tetracycline) was “protected from death”. For the same compound, the EC50 (MC65 cells) was 2 µM and the IC50 (ACAT) was 168 µM.

Compound `CC(=O)OCC1(C)C(OC(C)=O)CCC2(C)C1CC(OC(C)=O)C1(C)Oc3cc(-c4cccnc4)oc(=O)c3C(O)C21` (centres unmarked) [Pyripyropene A, reference compound] has an IC50 (L1210 tumor cells; Mus musculus, L1210, Table 9, read-out: C50, L1210 Leukemic Cells) of over 100 µM.
